Measured values published in publication PMC11045757, “Group 3 medulloblastoma transcriptional networks collapse under domain specific EP300/CBP inhibition” (Nature Communications, 2024).
Values joined by “and” are separate entries in the source; they are usually repeats but may differ in a detail not shown here. Identical values can stand only once. Like-named read-outs stand apart in the source and are kept apart here.

Assays:
[1] = test system: HDMB03 (HDMBO3) group 3 medulloblastoma cells; assay: CellTiter-Glo dose-response growth assay; assay type: cell-based
In short: (§1)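 HDMB03 group 3 medulloblastoma cells were plated in growth media at 500 cells/well in a 384-well plate, treated with compound, and incubated for the noted timepoint. Viability was then measured by CellTiter-Glo following the manufacturer's instructions, with plates read on an Envision 2104 microplate reader to generate dose-response growth curves.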

EP300 bromodomain [2] = molecular target: T1, EP300 bromodomain (Homo sapiens, UniProt Q09472); assay: Isothermal titration calorimetry (ITC); assay type: binding; conditions: single ITC experiment, data fit ± SEM
T1 construct: 6xHis (cleaved yes); host or cells: E. coli BL21 (DE3) RIL
T1 sequence (Q09472 1048-1161): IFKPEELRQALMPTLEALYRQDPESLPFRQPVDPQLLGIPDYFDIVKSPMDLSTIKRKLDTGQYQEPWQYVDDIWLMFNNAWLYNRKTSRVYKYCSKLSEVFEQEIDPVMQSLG
Procedure: (§2) After 18 h growth, the culture was harvested by centrifugation at 6000 × g for 25 min and stored at -80 °C. Harvested cell pellets were re-suspended in 50 mM Na/K phosphate buffer (pH 7.4) containing 100 mM NaCl, 40 mM imidazole, 0.01% w/v lysozyme and 0.01% v/v Triton X-100 at 4 °C for 1 h, subjected to sonication and the lysate was clarified by centrifugation (30,000 × g for 45 min at 4 °C). Proteins were purified by FPLC at 4 °C using columns and chromatography materials from GE Healthcare. […] Proteins were purified to homogeneity by size exclusion chromatography using Superdex 75 equilibrated with elution buffer (50 mM HEPES pH 7.5, 100 mM NaCl, 2 mM DTT). […] Pool fractions were combined, concentrated to 10–12 mg/ml, and aliquots were flash-frozen in liquid N2 and stored at −80 °C.

CBP bromodomain [3] = molecular target: T2, CBP bromodomain (Homo sapiens, UniProt Q92793); assay: Isothermal titration calorimetry (ITC); assay type: binding; conditions: single ITC experiment, data fit ± SEM
T2 construct: CBP (residues 1081-1197); 6xHis (cleaved yes); host or cells: E. coli BL21 (DE3) RIL
Procedure: as §2

BRD4-BD1 (BRD4-1) [4] = molecular target: T3, BRD4-BD1 (BRD4-1) (Homo sapiens, UniProt O60885); assay: Differential scanning fluorimetry (DSF) thermal shift; assay type: binding; conditions: DSF; 5 μM protein, 100 μM compound; three independent experiments, average ± SD
T3 construct: BRD4-BD1 (residues 44-168); 6xHis (cleaved yes); host or cells: E. coli BL21 (DE3) RIL
In short: (§3)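 Thermal shift of 5 μM E. coli-expressed bromodomain with 100 μM compound in 50 mM HEPES pH 7.5, 150 mM NaCl, 2 mM DTT, 2% DMSO, 5X SYPRO Orange, quadruplicate. Heated 25→95 °C at 1 °C/min, fluorescence at 610 nm; ΔTm relative to DMSO reference wells.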

EP300 bromodomain [5] = molecular target: T1, EP300 bromodomain; assay: as above; assay type: binding; conditions: DSF; 5 μM protein, 100 μM compound; three independent experiments, average ± SD
In short: as §3

BRD4-BD1 (BRD4-1) [6] = molecular target: T3, BRD4-BD1 (BRD4-1); assay: Isothermal titration calorimetry (ITC); assay type: binding
Procedure: At OD600 of 0.6, the culture was cooled down to 18 °C and induced with 0.1 mM IPTG. After 18 h growth, the culture was harvested by centrifugation at 6000 × g for 25 min and stored at -80 °C. Harvested cell pellets were re-suspended in 50 mM Na/K phosphate buffer (pH 7.4) containing 100 mM NaCl, 40 mM imidazole, 0.01% w/v lysozyme and 0.01% v/v Triton X-100 at 4 °C for 1 h, subjected to sonication and the lysate was clarified by centrifugation (30,000 × g for 45 min at 4 °C). Proteins were purified by FPLC at 4 °C using columns and chromatography materials from GE Healthcare. […] Proteins were purified to homogeneity by size exclusion chromatography using Superdex 75 equilibrated with elution buffer (50 mM HEPES pH 7.5, 100 mM NaCl, 2 mM DTT). All BRDs eluted as monomeric protein and were of crystallization grade quality (>95% purity as judged by SDS-PAGE). Pool fractions were combined, concentrated to 10–12 mg/ml, and aliquots were flash-frozen in liquid N2 and stored at −80 °C.
All experiments were conducted using an PEAQ-ITC calorimeter (Malvern Scientific). BRDs were buffer exchanged using PD10 columns (GE life sciences) into 50 mM HEPES pH7.5 and 100 mM NaCl (ITC buffer) before the experiment and concentrated to ∼10 mg/mL. Experiments were carried out in ITC buffer while stirring at 750 rpm through reverse titration. The microsyringe (40 μL load volume) was loaded with the protein sample (250–600 μM protein in ITC buffer) and inserted into the calorimetric cell (0.2 mL cell volume) consisting of compound (20–60 μM in ITC buffer). All titrations were conducted using an initial control injection of 0.2 μL followed by 13 identical injections (~3 μL per injection) with a duration of 2 s (per injection) and a spacing of 150 s between injections. The ratio of protein/compound was optimized to ensure complete saturation of the titrant before the final injection to ensure proper baseline determination. Data were corrected for dilution and analyzed using the MicroCal Origin software to determine the enthalpies of binding (ΔH) and binding constants as described. Thermodynamic parameters were calculated using the basic equation of thermodynamics (ΔG = ΔH − TΔS = −RTlnKB) where ΔG, ΔH and ΔS are the changes in free energy, enthalpy and entropy of binding, respectively. A single binding site model was used for all ligand-protein interactions.

CBP bromodomain [7] = molecular target: T2, CBP bromodomain; assay: Differential scanning fluorimetry (DSF) thermal shift; assay type: binding; conditions: DSF; 5 μM protein, 100 μM compound; three independent experiments, average ± SD
CBP bromodomain [8] = assay: as above; assay type: binding; conditions: ΔTm (CBP)/ΔTm(BRD4)
MB002 cells = assay: ERCC spike-in RNAseq gene expression after 6 h treatment; assay type: cell-based; conditions: MB002, replicate values, Supplementary Fig 6c
Procedure: (§4) First, we examined global changes in gene expression induced by drug treatment.
(§5) External RNA consortium control RNAs (ERCC, Ambion) were added directly to Trizol, based on cell number prior to RNA extraction. RNA samples were treated with DNAse I (Invitrogen) prior to recovery. Samples were obtained in biological triplicate. Total RNA was subjected to ribosomal RNA depletion prior to library preparation using the Truseq Stranded Total Library Prep Kit (Illumina) and sequencing on a Nextseq-500 (paired end, 100 bp reads).
(§6) Sequences were aligned using HISAT2 (version 2.1.0)[77] in paired-end mode with default parameters to build version hg19 of the human genome to which the sequences of the ERCC synthetic spike-in RNAs (http://tools.invitrogen.com/downloads/ERCC92.fa) had been added. Per-gene expression was quantified using htseq-count[78] with parameters “-i gene_id --stranded=reverse -f bam -m,” and version 87 of the canonical GRCh37 gene list from RefSeq to which ERCC coordinates were added. TPM-normalized (Transcripts Per Million) expression was then computed for each gene and synthetic ERCC spike-in RNA. Per-gene exon length was calculated across all exons of all isoforms of each gene. The standard TPM-normalization strategy is: normterm = sum of (read count * read length/exon length) across all genes. TPM = read count * read length/exon length * 1e6/normterm. We used a loess regression to normalize the TPM values across all samples of the batch, using only the spike-in values to fit the loess by the “affy” R package[79] with function loess.normalize. This function allowed us to perform loess regression on a matrix of TPM values and used the ERCC subset of data for fitting the loess. The output from this was a matrix of normalized TPM values controlled by ERCC spike-ins.
(§7) We used the elbow method[81] to determine the k value in k-means cluster analysis.
(§8) Dependency analysis was performed using the 22Q4 release of the DepMap dataset, comprising seven medulloblastoma cell lines: UW228, DAOY, ONS76, D458, D425, D283MED, D341MED. Dependency was defined as a Chronos gene effect score of <−0.5, and gene lists were filtered for dependency in >2/7 medulloblastoma cell lines. […] PANTHER was used to define gene annotations, with unknown annotations assigned using individual assessment using the Genecards.org resource.

HDMB03 (HDMBO3) cells = assay: as above; assay type: cell-based; conditions: HDMBO3, replicate values, Supplementary Fig 6c
Procedure: as §4, §5, §6, §7, §8

[9] = test system: MB002 group 3 medulloblastoma cells; assay: CellTiter-Glo dose-response growth assay; assay type: cell-based; conditions: day 3; read-out: d3 IC50 MB002
In short: as §1, with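 “MB002” for “HDMB03”, “seeded” for “plated”, “exposed to a range of compound concentrations,” for “treated with compound,”, “indicated time.” for “noted timepoint.”, “produce” for “generate”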

T2 sequence (Q92793 1081-1197): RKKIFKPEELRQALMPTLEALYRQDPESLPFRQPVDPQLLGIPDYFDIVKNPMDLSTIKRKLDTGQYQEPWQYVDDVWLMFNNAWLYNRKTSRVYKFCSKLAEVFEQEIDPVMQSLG

| Structure (SMILES) | IC50 ([1]; Homo sapiens, HD-MB03, HDMBO3 G3MB cell growth, read-out: IC50 (nM) HDMBO3) [nM] | Kd (EP300 bromodomain [2]) [nM] | Kd (CBP bromodomain [3]) [nM] | ∆Tm (°C) BRD4-1 (BRD4-BD1 (BRD4-1) [4]) [°C] | ∆Tm (°C) EP300 (EP300 bromodomain [5]) [°C] | reduction of activity against BRD4 (BRD4-BD1 (BRD4-1) [6]; relative to CCS1477) | Kd (BRD4-BD1 (BRD4-1) [6]; single ITC experiment, data fit ± SEM) [nM] | ∆Tm (°C) CBP (CBP bromodomain [7]) [°C] | Ratio CBP/BRD4 of ∆Tm (CBP bromodomain [8]) | Normalized MYC expression (MB002 cells) | Normalized MYC expression (HDMB03 (HDMBO3) cells) | IC50 [9] [µM] | IC50 ([1]; day 3, read-out: d3 IC50 HDMBO3) [nM] |
| --- | --- | --- | --- | --- | --- | --- | --- | --- | --- | --- | --- | --- | --- |
| Cc1noc(C)c1-c1ccc2c(c1)nc(C1CCCC(=O)N1)n2C1CCC(NC(=O)OC(C)(C)C)CC1 (stereo not shown) [Compound 1] | > 100000 | 2300 ± 386 | 1550 ± 600 | 2.1 ± 0.06 | 7.3 ± 1.3 | ~ 10 fold | 4210 ± 400 | 7.8 ± 0.43 | 3.7 | – | – | – | – |
| Cc1sc2c(c1C)C(c1ccc(Cl)cc1)=N[C@@H](CC(=O)OC(C)(C)C)c1nnc(C)n1-2 [JQ1] | – | – | – | – | – | – | – | – | – | 0.8713 and 1.005 and 0.8421 | 0.9657 and 0.7621 and 0.679 | 0.107 | 100 |
